Results taken from US6174884A, “1,5-dihydro-pyrazolo[34-D]-pyrimidinone derivatives” (Bayer Aktiengesellschaft, priority 1997, dated 2001).

Assays:
PDE I = assay: Phosphodiesterase inhibition in vitro, PDE I (Ca-calmodulin-stimulatable); assay type: biochemical, porcine aorta, porcine brain or, preferably, bovine aorta; conditions: Ca/calmodulin added, substrate 10^-6 mol/l
From the text: (§1) The c-GMP-stimulatable PDE II, the c-GMP-inhibitable PDE III and the cAMP-specific PDE IV were isolated either from porcine or bovine heart myocard. The Ca^2+ -calmodulin-stimulatable PDE I was isolated from porcine aorta, porcine brain or, preferably, bovine aorta. The c-GMP-specific PDE V was obtained from porcine small intestine, porcine aorta, human platelets and, preferably, bovine aorta. They were purified by anion exchange chromatography on MonoQ® Pharmacia following essentially the method of M. Hoey and Miles D. Houslay, Biochemical Pharmacology, Vol. 40, 193-202 (1990) and C. Lugman et al. Biochemical Pharmacology Vol. 35 1743-1751 (1986).
(§2) The enzyme activity is determined in a test batch of 100 μl in 20 mM Tris/HCl buffer pH 7.5 which comprises 5 mM MgCl2, 0.1 mg/ml bovine serum albumin and either 800 Bq ^3 HcAMP or ^3 HcGMP. The end concentration of the corresponding nucleotide is 10^-6 mol/l. The reaction is started by adding the enzyme, and the quantity of enzyme is such that approx. 50% of the substrate are converted during the incubation time of 30 minutes. To test the cGMP-stimulatable PDE II, ^3 HcAMP is used as substrate, 10^-6 mol/l unlabelled cGMP are added to the batch. To test the Ca-calmodulin-dependent PDE I, 1 μM CaCl2 and 0.1 μM calmodulin are also added to the reaction batch. The reaction is stopped by adding 100 μl of acetonitrile which contains 1 mM cAMP and 1 mM AMP. 100 μl of the reaction batch are separated by HPLC and the cleavage products are quantified on-line using a flow scintillation counter. The substance concentration at which the reaction rate is reduced by 50% is measured. Also used for testing were the "Phosphodiesterase [^3 H] cAMP-SPA enzyme assay" and the "Phosphodiesterase [^3 H]cGMP-SPA enzyme assay" by Amersham Life Science. The test was performed following the manufacturer's protocol. To determine the PDE2 activity, the [^3 H] cAMP SPA assay was used, 10^-6 M cGMP being added to the reaction batch for activating the enzyme. To measure PDE1, 10^-7 M calmodulin and 1 μM CaCl2 were added to the reaction batch. PDE5 was measured using the [^3 H] cGMP SPA assay.

PDE II = assay: Phosphodiesterase inhibition in vitro, PDE II (cGMP-stimulatable); assay type: biochemical, porcine or bovine; conditions: 3H-cAMP substrate, 10^-6 mol/l cGMP added
From the text: as §1, §2

PDE V = assay: Phosphodiesterase inhibition in vitro, PDE V (cGMP-specific); assay type: biochemical; conditions: 3H-cGMP substrate
From the text: as §1, §2

Row | IC50 (PDE I) | IC50 (PDE II) | IC50 (PDE V) | Compound
1 | 500 nM | 300 nM | 300 nM | Cc1nn(C(CCCc2ccccc2)C(C)O)c2nc(Cc3ccccc3)[nH]c(=O)c12 (single isomer, unassigned) [Example 32, 6-Benzyl-1-[1-(1-hydroxy-ethyl)-4-phenyl-butyl]-3-methyl-1,5-dihydro-pyrazolo[3,4-d]pyrimidin-4-one]
2 | 500 nM | 500 nM | 800 nM | Cc1nn(C(CCCc2ccccc2)C(C)O)c2nc(Cc3ccccc3)[nH]c(=O)c12 (single isomer, unassigned) [Example 33, 6-Benzyl-1-[1-(1-hydroxy-ethyl)-4-phenyl-butyl]-3-methyl-1,5-dihydro-pyrazolo[3,4-d]pyrimidin-4-one]
3 | 300 nM | 300 nM | 300 nM | COc1ccc(Cc2nc3c(cnn3C(C)CCCc3ccccc3)c(=O)[nH]2)cc1OC (stereo not drawn) [Example 9]
4 | 300 nM | 500 nM | 50 nM | CC(CCCc1ccccc1)n1ncc2c(=O)[nH]c(Cc3ccc(Cl)c(Cl)c3)nc21 (stereo not drawn) [Example 10]
5 | > 10000 nM | 100 nM | 50 nM | CCc1nn(C(C)CCCc2ccccc2)c2nc(Cc3ccc(Br)cc3)[nH]c(=O)c12 (stereo not drawn) [Example 11, 6-(4-Bromo-benzyl)-1-(1-methyl-4-phenyl-butyl)-3-ethyl-1,5-dihydro-pyrazole[3,4-d]pyrimidin-4-one]
